Experimental data: patent publication US9605022B2, “Macrocyclic compounds for inhibition of inhibitors of apoptosis” (Ensemble Therapeutics Corporation, priority 2012, dated 2017)

What was measured:
[1] = target: XIAP BIR3 (His-BIR3 (241-356, XIAP)) (Homo sapiens (Human), UniProt P98170); experiment: XIAP-BIR3/SMAC Homogeneous Time Resolved Fluorescence (HTRF) Assay; format: binding; conditions: 1 nM N-His-BIR3, 5 nM fluorescein labeled SMAC peptide; read-out: XIAP BIR3 FRET IC50
[2] = target: XIAP BIR2-3 (His-BIR2-3 (125-356, C202A/C213G, XIAP)) (Homo sapiens (Human), UniProt P98170, C202A/C213G); experiment: XIAP-BIR2-3 Dimeric SMAC Peptide Homogeneous Time Resolved Fluorescence (HTRF) Assay; format: binding; conditions: 0.5 nM N-His-BIR2-3, 20 nM fluorescein labeled dimeric SMAC peptide; read-out: XIAP BIR2-3 FRET IC50
Chain of XIAP BIR2-3 (His-BIR2-3 (125-356, C202A/C213G, XIAP)) (P98170 125-356 C202A/C213G): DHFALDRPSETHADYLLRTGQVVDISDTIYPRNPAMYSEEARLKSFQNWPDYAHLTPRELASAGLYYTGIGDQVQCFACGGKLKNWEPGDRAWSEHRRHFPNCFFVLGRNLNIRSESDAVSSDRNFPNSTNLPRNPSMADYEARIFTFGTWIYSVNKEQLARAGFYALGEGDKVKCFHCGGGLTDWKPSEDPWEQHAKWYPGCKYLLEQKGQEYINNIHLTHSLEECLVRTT

Chain of XIAP BIR3 (His-BIR3 (241-356, XIAP)) (P98170 241-356): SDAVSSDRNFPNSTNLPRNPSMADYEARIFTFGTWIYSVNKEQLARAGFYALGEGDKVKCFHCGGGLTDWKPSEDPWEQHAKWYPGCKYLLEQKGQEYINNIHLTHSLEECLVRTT

| SMILES | IC50 [1] [nM] | IC50 [2] [nM] |
| --- | --- | --- |
| CN[C@@H](C)C(=O)N[C@H](C(=O)N1CC[C@@H]2[C@H]1C(=O)NC(=O)C[C@@H](Cc1ccc3ccccc3c1)C(=O)N[C@H](C(=O)O)Cc1ccc(cc1)OCc1cn(nn1)[C@@H]1CCN(C(=O)[C@@H](NC(=O)[C@H](C)NC)C(C)(C)C)[C@@H]1C(=O)N[C@@H](Cc1ccc3ccccc3c1)C(=O)N[C@H](c1n[nH]c(=O)o1)Cc1ccc(cc1)OCc1cn2nn1)C(C)(C)C [Example 14] | 8.6 | 1.3 |
| CN[C@@H](C)C(=O)N[C@H](C(=O)N1CC[C@@H]2[C@H]1C(=O)N[C@@H](Cc1ccc3ccccc3c1)C(=O)N[C@H](C(=O)O)Cc1ccc(cc1)OCc1cn(nn1)[C@@H]1CCN(C(=O)[C@@H](NC(=O)[C@H](C)NC)C(C)(C)C)[C@@H]1C(=O)N[C@@H](Cc1ccc3ccccc3c1)C(=O)N[C@H](C(=O)NS(=O)(=O)c1ccccn1)Cc1ccc(cc1)OCc1cn2nn1)C(C)(C)C [Example 10] | 63.1 | 16.9 |
| CN[C@@H](C)C(=O)N[C@H](C(=O)N1CC[C@@H]2[C@H]1C(=O)N[C@@H](Cc1ccc3ccccc3c1)C(=O)N[C@H](C(=O)O)Cc1ccc(cc1)OCc1cn(nn1)[C@@H]1CCN(C(=O)[C@@H](NC(=O)[C@H](C)NC)C(C)(C)C)[C@@H]1C(=O)N[C@@H](Cc1ccc3ccccc3c1)C(=O)N[C@H](c1nc(=S)o[nH]1)Cc1ccc(cc1)OCc1cn2nn1)C(C)(C)C [Example 17] | 3.2 | 0.8 |
| CN[C@@H](C)C(=O)N[C@H](C(=O)N1CC[C@@H]2[C@H]1[C@@H](Cc1ccc3ccccc3c1)C(=O)N[C@H](C(=O)O)Cc1ccc(cc1)OCc1cn(nn1)[C@@H]1CCN(C(=O)[C@@H](NC(=O)[C@H](C)NC)C(C)(C)C)[C@@H]1C(=O)C[C@@H](Cc1ccc3ccccc3c1)C(=O)N[C@H](C(=O)OC)Cc1ccc(cc1)OCc1cn2nn1)C(C)(C)C [Example 7] | 29 | 6.5 |
| CN[C@@H](C)C(=O)N[C@H](C(=O)N1CC[C@@H]2[C@H]1C(=O)N[C@@H](Cc1ccc3ccccc3c1)C(=O)N[C@H](C(=O)O)Cc1ccc(cc1)OCc1cn(nn1)[C@@H]1CCN(C(=O)[C@@H](NC(=O)[C@H](C)NC)C(C)(C)C)[C@@H]1C(=O)N[C@@H](Cc1ccc3ccccc3c1)C(=O)N[C@H](c1nnn[nH]1)Cc1ccc(cc1)OCc1cn2nn1)C(C)(C)C (single isomer, unassigned) [Example 15] | 1.9 | 0.3 |
| CN[C@@H](C)C(=O)N[C@H](C(=O)N1CC[C@H]2OCc3cn(nn3)[C@H](C(=O)O)CCNC(=O)[C@H](Cc3ccc4ccccc4c3)NC(=O)[C@@H]3[C@@H](CCN3C(=O)[C@@H](NC(=O)[C@H](C)NC)C(C)(C)C)OCc3cn(nn3)[C@H](C(=O)O)CCNC(=O)[C@H](Cc3ccc4ccccc4c3)NC(=O)[C@H]21)C(C)(C)C [Example 4] | 57.8 | 1.6 |
| CN[C@@H](C)C(=O)N[C@H](C(=O)N1CC[C@@H]2[C@H]1C(=O)N[C@@H](Cc1ccc3ccccc3c1)C(=O)N[C@H](C(=O)O)Cc1ccc(cc1)OCc1cn(nn1)[C@@H]1CCN(C(=O)[C@@H](NC(=O)[C@H](C)NC)C(C)(C)C)[C@@H]1C(=O)N[C@@H](Cc1ccc3ccccc3c1)C(=O)N[C@H](c1nc(=O)o[nH]1)Cc1ccc(cc1)OCc1cn2nn1)C(C)(C)C [Example 20] | 10.1 | 2.9 |
| CN[C@@H](C)C(=O)N[C@H](C(=O)N1CC[C@@H]2[C@H]1C(=O)N[C@@H](Cc1ccc3ccccc3c1)C(=O)N[C@H](C(=O)O)Cc1ccc(cc1)OCc1cn(nn1)[C@@H]1CCN(C(=O)[C@@H](NC(=O)[C@H](C)NC)C(C)(C)C)[C@@H]1C(=O)N[C@@H](Cc1ccc3ccccc3c1)C(=O)N[C@H](c1nc(=O)o[nH]1)Cc1ccc(cc1)OCc1cn2nn1)C(C)(C)C [Example 19] | 2 | 0.4 |
| CN[C@@H](C)C(=O)N[C@H](C(=O)N1CC[C@@H]2[C@H]1C(=O)N[C@@H](Cc1ccc3ccccc3c1)C(=O)N[C@H](C(=O)O)Cc1ccc(cc1)OCc1cn(nn1)[C@@H]1CCN(C(=O)[C@@H](NC(=O)[C@H](C)NC)C(C)(C)C)[C@@H]1C(=O)N[C@@H](Cc1ccc3ccccc3c1)C(=O)N[C@H](C(=O)NS(=O)(=O)C1CC1)Cc1ccc(cc1)OCc1cn2nn1)C(C)(C)C [Example 11] | 10.3 | 1.3 |
| CN[C@@H](C)C(=O)N[C@H](C(=O)N1CC[C@@H]2[C@H]1C(=O)N[C@@H](Cc1ccc3ccccc3c1)C(=O)N[C@H](C(=O)O)Cc1ccc(cc1)OCc1cn(nn1)[C@@H]1CCN(C(=O)[C@@H](NC(=O)[C@H](C)NC)C(C)(C)C)[C@@H]1C(=O)N[C@@H](Cc1ccc3ccccc3c1)C(=O)N[C@H](c1nnn[nH]1)Cc1ccc(cc1)OCc1cn2nn1)C(C)(C)C (single isomer, unassigned) [Example 16] | 4.4 | 2.2 |
| CN[C@@H](C)C(=O)N[C@H](C(=O)N1CC[C@@H]2[C@H]1C(=O)N[C@@H](Cc1ccc3ccccc3c1)C(=O)N[C@H](C(=O)O)Cc1ccc(cc1)OCc1cn(nn1)[C@@H]1CCN(C(=O)[C@@H](NC(=O)[C@H](C)NC)C(C)(C)C)[C@@H]1C(=O)N[C@@H](Cc1ccc3ccccc3c1)C(=O)N[C@H](c1nc(=S)o[nH]1)Cc1ccc(cc1)OCc1cn2nn1)C(C)(C)C [Example 18] |  | 2.2 |
| CN[C@@H](C)C(=O)N[C@H](C(=O)N1CC[C@H]2OCc3cn(nn3)CCC[C@H](C(=O)O)NC(=O)[C@H](Cc3ccc4ccccc4c3)NC(=O)[C@@H]3[C@@H](CCN3C(=O)[C@@H](NC(=O)[C@H](C)NC)C(C)(C)C)OCc3cn(nn3)CCC[C@H](C(=O)O)NC(=O)[C@H](Cc3ccc4ccccc4c3)NC(=O)[C@H]21)C(C)(C)C [Example 3] | 1.9 | 0.8 |
| CN[C@@H](C)C(=O)N[C@H](C(=O)N1CC[C@@H]2[C@H]1C(=O)N[C@@H](Cc1ccc3ccccc3c1)C(=O)N[C@H](C(=O)O)Cc1ccc(cc1)OCc1cn(nn1)[C@@H]1CCN(C(=O)[C@@H](NC(=O)[C@H](C)NC)C(C)(C)C)[C@@H]1C(=O)N[C@@H](Cc1ccc3ccccc3c1)C(=O)N[C@H](C(=O)O)c1ccc(cc1)OCc1cn2nn1)C(C)(C)C [Example 1] | 4.9 | 1.1 |
